Literature values as cited in US20240166770A1, “COMPOSITIONS AND METHODS FOR INHIBITION OF CELL-PENETRATING ANTIBODIES” (Yale University, priority 2019, published 2024).
Where two headings read alike, the source gives them in different places.

What was measured:
Settings in all cases: cited from earlier work
ENT2 = target: T1, ENT2 (Homo sapiens, UniProt Q14542)
T1 sequence (Q14542 1-456): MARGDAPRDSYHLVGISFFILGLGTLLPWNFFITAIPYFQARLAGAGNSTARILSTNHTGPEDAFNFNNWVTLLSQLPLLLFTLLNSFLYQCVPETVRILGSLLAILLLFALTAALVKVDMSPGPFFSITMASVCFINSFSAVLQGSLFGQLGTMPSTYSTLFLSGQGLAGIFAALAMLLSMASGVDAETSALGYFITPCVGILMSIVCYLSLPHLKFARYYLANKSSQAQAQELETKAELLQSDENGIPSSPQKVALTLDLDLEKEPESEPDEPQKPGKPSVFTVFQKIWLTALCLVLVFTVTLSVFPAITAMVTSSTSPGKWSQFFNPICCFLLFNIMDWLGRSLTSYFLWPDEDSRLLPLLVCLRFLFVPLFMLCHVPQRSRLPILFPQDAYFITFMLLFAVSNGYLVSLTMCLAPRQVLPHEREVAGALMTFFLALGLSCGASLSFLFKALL

hENT4 = target: T2, hENT4 (Homo sapiens, UniProt Q7RTT9)
T2 sequence (Q7RTT9 1-530): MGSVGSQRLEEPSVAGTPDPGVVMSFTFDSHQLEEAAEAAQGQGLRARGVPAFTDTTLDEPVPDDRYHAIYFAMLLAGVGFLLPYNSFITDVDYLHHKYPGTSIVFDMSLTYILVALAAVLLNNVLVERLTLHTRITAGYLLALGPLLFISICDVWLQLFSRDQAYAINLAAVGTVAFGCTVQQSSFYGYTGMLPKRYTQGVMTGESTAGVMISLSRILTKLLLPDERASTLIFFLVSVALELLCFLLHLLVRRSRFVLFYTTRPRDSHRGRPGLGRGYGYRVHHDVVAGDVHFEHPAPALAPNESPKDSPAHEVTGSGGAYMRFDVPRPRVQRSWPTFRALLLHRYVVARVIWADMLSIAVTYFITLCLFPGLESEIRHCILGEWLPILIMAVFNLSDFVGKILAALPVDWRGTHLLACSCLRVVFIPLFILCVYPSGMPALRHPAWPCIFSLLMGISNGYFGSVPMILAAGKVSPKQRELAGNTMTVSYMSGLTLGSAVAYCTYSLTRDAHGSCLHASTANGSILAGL

hENT1 = target: T3, hENT1 (Homo sapiens, UniProt Q99808)
T3 sequence (Q99808 1-456): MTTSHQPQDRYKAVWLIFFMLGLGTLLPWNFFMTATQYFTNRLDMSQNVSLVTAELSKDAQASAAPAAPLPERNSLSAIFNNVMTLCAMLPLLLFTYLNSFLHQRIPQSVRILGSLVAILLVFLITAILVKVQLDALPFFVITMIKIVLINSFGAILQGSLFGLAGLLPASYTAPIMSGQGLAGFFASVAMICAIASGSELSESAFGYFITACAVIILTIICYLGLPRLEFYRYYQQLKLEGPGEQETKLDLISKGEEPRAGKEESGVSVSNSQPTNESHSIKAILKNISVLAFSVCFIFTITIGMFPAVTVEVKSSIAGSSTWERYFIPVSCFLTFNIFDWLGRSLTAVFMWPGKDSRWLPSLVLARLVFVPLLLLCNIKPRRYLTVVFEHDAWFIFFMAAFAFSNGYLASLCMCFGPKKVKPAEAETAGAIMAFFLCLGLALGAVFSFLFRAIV

[1] = Table 1, different ring systems at the 4- and 8-positions
[2] = Table 2, opening chain analogues
[3] = Table 4, modification at hydroxyl groups of dipyridamole
[4] = Table 3, free hydrogen on the nitrogen of 4- and 8-position substituents

## OCCN(CCO)c1nc(N2CCCCCCCC2)c2nc(N(CCO)CCO)nc(N3CCCCCCCC3)c2n1 [compound 15]
ENT2; [1]
  IC50: 2.35 µM
hENT4; [1]
  IC50: 1.32 µM

## OCCN(CCO)c1nc(N(Cc2ccccc2)Cc2ccccc2)c2nc(N(CCO)CCO)nc(N(Cc3ccccc3)Cc3ccccc3)c2n1 [compound 37]
hENT4; [2]
  IC50: 68.4 µM

## OCCN(CCO)c1nc(N2CCOCC2)c2nc(N(CCO)CCO)nc(N3CCOCC3)c2n1 [compound 4]
ENT2; [1]
  IC50: 4.12 µM

## OCCNc1nc(N2CCCCCCC2)c2nc(NCCO)nc(N3CCCCCCC3)c2n1 [compound 14]
ENT2; [1]
  IC50: 5.2 µM
hENT4; [1]
  IC50: 0.181 µM

## CCCOCCN(CCOCCC)c1nc(N2CCCCC2)c2nc(N(CCOCCC)CCOCCC)nc(N3CCCCC3)c2n1 [compound 78]
hENT4; [3]
  IC50: 140 µM

## CCCCN(CCCC)c1nc(N(CCO)CCO)nc2c(N(CCCC)CCCC)nc(N(CCO)CCO)nc12 [compound 27]
ENT2; [2]
  IC50: 3.31 µM
hENT4; [2]
  IC50: 2.96 µM

## OCCN(CCO)c1nc(NC2CCC2)c2nc(N(CCO)CCO)nc(NC3CCC3)c2n1 [compound 62]
ENT2; [4]
  IC50: 0.727 µM
hENT4; [4]
  IC50: 15.7 µM

## OCCN(CCO)c1nc(NC2CCCC2)c2nc(N(CCO)CCO)nc(NC3CCCC3)c2n1 [compound 64]
ENT2; [4]
  IC50: 1.32 µM
hENT4; [4]
  IC50: 12.2 µM

## CC(C)CN(CC(C)C)c1nc(N(CCO)CCO)nc2c(N(CC(C)C)CC(C)C)nc(N(CCO)CCO)nc12 [compound 29]
ENT2; [2]
  IC50: 1.96 µM
hENT4; [2]
  IC50: 1.71 µM
hENT1; [2]
  IC50: 2.63 µM

## CCOCCN(CCOCC)c1nc(N2CCCCC2)c2nc(N(CCOCC)CCOCC)nc(N3CCCCC3)c2n1 [compound 77]
hENT4; [3]
  IC50: 29.9 µM
hENT1; [3]
  IC50: 0.768 µM

## OCCN(CCO)c1nc(NC2CC2)c2nc(N(CCO)CCO)nc(NC3CC3)c2n1 [compound 60]
ENT2; [4]
  IC50: 2.71 µM
hENT4; [4]
  IC50: 37.6 µM

## COCCN(CCOC)c1nc(N2CCCCC2)c2nc(N(CCOC)CCOC)nc(N3CCCCC3)c2n1 [compound 76]
ENT2; [3]
  IC50: 1.47 µM
hENT4; [3]
  IC50: 1.82 µM

## CCCNc1nc(N(CCO)CCO)nc2c(NCCC)nc(N(CCO)CCO)nc12 [compound 44]
ENT2; [4]
  IC50: 3.5 µM
hENT4; [4]
  IC50: 16.4 µM

## CC(C)Nc1nc(N(CCO)CCO)nc2c(NC(C)C)nc(N(CCO)CCO)nc12 [compound 46]
ENT2; [4]
  IC50: 3.02 µM
hENT4; [4]
  IC50: 26 µM

## CC(C)(C)OC(=O)N1CCN(c2nc(N(CCO)CCO)nc3c(N4CCN(C(=O)OC(C)(C)C)CC4)nc(N(CCO)CCO)nc23)CC1 [compound 7]
ENT2; [1]
  IC50: 2.23 µM
hENT1; [1]
  IC50: 0.58 µM

## OCCN(CCO)c1nc(N2CCCCCC2)c2nc(N(CCO)CCO)nc(N3CCCCCC3)c2n1 [compound 11]
ENT2; [1]
  IC50: 0.117 µM
hENT4; [1]
  IC50: 0.379 µM

## CCN(CC)c1nc(N(CCO)CCO)nc2c(N(CC)CC)nc(N(CCO)CCO)nc12 [compound 23]
ENT2; [2]
  IC50: 2.93 µM
hENT4; [2]
  IC50: 4.12 µM

## OCCNc1nc(N2CCCCC2)c2nc(NCCO)nc(N3CCCCC3)c2n1 [compound 1]
ENT2; [1]
  IC50: 7.44 µM
hENT4; [1]
  IC50: 2.2 µM

## OCCNc1nc(NC2CCC2)c2nc(NCCO)nc(NC3CCC3)c2n1 [compound 63]
ENT2; [4]
  IC50: 7.75 µM
hENT1; [4]
  IC50: 1.86 µM

## O=COCCN(CCOC=O)c1nc(N2CCCCC2)c2nc(N(CCOC=O)CCOC=O)nc(N3CCCCC3)c2n1 [compound 74]
ENT2; [3]
  IC50: 0.532 µM
hENT1; [3]
  IC50: 0.0691 µM

## CCC(C)(C)Nc1nc(N(CCO)CCO)nc2c(NC(C)(C)CC)nc(N(CCO)CCO)nc12 [compound 58]
hENT4; [4]
  IC50: 0.818 µM
hENT1; [4]
  IC50: 0.0789 µM

## CC(C)CCNc1nc(N(CCO)CCO)nc2c(NCCC(C)C)nc(N(CCO)CCO)nc12 [compound 56]
ENT2; [4]
  IC50: 1.95 µM
hENT4; [4]
  IC50: 0.495 µM

## OCCN(CCO)c1nc(N2C3CCCC2CC3)c2nc(N(CCO)CCO)nc(N3C4CCCC3CC4)c2n1 [compound 17]
ENT2; [1]
  IC50: 0.323 µM

## CC(C)CCN(CCC(C)C)c1nc(N(CCO)CCO)nc2c(N(CCC(C)C)CCC(C)C)nc(N(CCO)CCO)nc12 [compound 33]
hENT4; [2]
  IC50: 44.2 µM

## CC(C)CNc1nc(N(CCO)CCO)nc2c(NCC(C)C)nc(N(CCO)CCO)nc12 [compound 50]
ENT2; [4]
  IC50: 1.49 µM
hENT4; [4]
  IC50: 3.06 µM
hENT1; [4]
  IC50: 0.126 µM

## OCCN(CCO)c1nc(Nc2ccccc2)c2nc(N(CCO)CCO)nc(Nc3ccccc3)c2n1 [compound 68]
hENT1; [4]
  IC50: 1.12 µM

## OCCN(CCO)c1nc(N2CCCC2)c2nc(N(CCO)CCO)nc(N3CCCC3)c2n1 [compound 2]
ENT2; [1]
  IC50: 0.556 µM

## CCCN(CCC)c1nc(N(CCO)CCO)nc2c(N(CCC)CCC)nc(N(CCO)CCO)nc12 [compound 25]
ENT2; [2]
  IC50: 3.83 µM
hENT4; [2]
  IC50: 0.234 µM
hENT1; [2]
  IC50: 0.197 µM

## OCCN(CCO)c1nc(N2CC3CC4CC(C3)CC2C4)c2nc(N(CCO)CCO)nc(N3CC4CC5CC(C4)CC3C5)c2n1 [compound 19]
hENT4; [1]
  IC50: 0.2 µM
hENT1; [1]
  IC50: 0.393 µM

## OCCN(CCO)c1nc(N2CCCCCCC2)c2nc(N(CCO)CCO)nc(N3CCCCCCC3)c2n1 [compound 13]
ENT2; [1]
  IC50: 0.0908 µM
hENT4; [1]
  IC50: 0.404 µM

## CCCCCNc1nc(N(CCO)CCO)nc2c(NCCCCC)nc(N(CCO)CCO)nc12 [compound 54]
ENT2; [4]
  IC50: 4.79 µM
hENT4; [4]
  IC50: 0.603 µM

## C1CCN(c2nc(N3CCOCC3)nc3c(N4CCCCC4)nc(N4CCOCC4)nc23)CC1 [compound 73]
hENT1; [3]
  IC50: 1.64 µM

## CCCCNc1nc(N(CCO)CCO)nc2c(NCCCC)nc(N(CCO)CCO)nc12 [compound 48]
ENT2; [4]
  IC50: 2.85 µM
hENT4; [4]
  IC50: 1.88 µM

## CC(C)(C)Nc1nc(N(CCO)CCO)nc2c(NC(C)(C)C)nc(N(CCO)CCO)nc12 [compound 52]
hENT4; [4]
  IC50: 0.767 µM

## COCCN(CCOC)c1nc(N(CCO)CCO)nc2c(N(CCOC)CCOC)nc(N(CCO)CCO)nc12 [compound 35]
ENT2; [2]
  IC50: 2.09 µM
hENT4; [2]
  IC50: 104 µM
hENT1; [2]
  IC50: 0.538 µM

## CC(=O)OCCN(CCOC(C)=O)c1nc(N2CCCCC2)c2nc(N(CCOC(C)=O)CCOC(C)=O)nc(N3CCCCC3)c2n1 [compound 75]
ENT2; [3]
  IC50: 0.708 µM
hENT4; [3]
  IC50: 14.1 µM

## CNc1nc(N(CCO)CCO)nc2c(NC)nc(N(CCO)CCO)nc12 [compound 40]
hENT1; [4]
  IC50: 8.46 µM

## OCCNc1nc(N2CC3CC4CC(C3)CC2C4)c2nc(NCCO)nc(N3CC4CC5CC(C4)CC3C5)c2n1 [compound 20]
hENT4; [1]
  IC50: 0.602 µM
hENT1; [1]
  IC50: 1.43 µM

## OCCNc1nc(NCc2ccccc2)c2nc(NCCO)nc(NCc3ccccc3)c2n1 [compound 71]
hENT4; [4]
  IC50: 1.76 µM

## OCCOc1nc(N2CCCCC2)c2nc(OCCO)nc(N3CCCCC3)c2n1 [compound 72]
ENT2; [3]
  IC50: 1.78 µM

## CCCCCN(CCCCC)c1nc(N(CCO)CCO)nc2c(N(CCCCC)CCCCC)nc(N(CCO)CCO)nc12 [compound 31]
hENT4; [2]
  IC50: 45.7 µM

## CCNc1nc(N(CCO)CCO)nc2c(NCC)nc(N(CCO)CCO)nc12 [compound 42]
hENT1; [4]
  IC50: 0.768 µM

## OCCN(CCO)c1nc(NC2CCCCC2)c2nc(N(CCO)CCO)nc(NC3CCCCC3)c2n1 [compound 66]
hENT4; [4]
  IC50: 124 µM

## CC(C)OCCN(CCO)c1nc(N2CCCCC2)c2nc(N(CCO)CCOC(C)C)nc(N3CCCCC3)c2n1 [compound 79]
ENT2; [3]
  IC50: 0.175 µM
hENT1; [3]
  IC50: 0.0675 µM
